Entries after “also recorded” stand apart in the source; their conditions may differ.
Key:
MethA = experiment: Mouse therapy model, MethA-transplanted BALB/c mice (tumor volume); type: in vivo; conditions: MethA in BALB/c mice, combined with PD-L1 antibody
Description: (§1) MC38 (5×10^5) and MethA (5×10^5) cells were intradermally injected on the right flank. MC38 was inoculated into C57BL/6 mice and MethA was inoculated into BALB/c mice. For monotherapy, mice were intraperitoneally injected with 150 μg of PD-L1 mouse antibody (1-111A) (prepared by the laboratory of the present inventors) 5 days after the tumor inoculation. Therapy with PD-L1 antibody alone was repeated three times every 5 days. For combination therapy, administration of PD-L1 antibody and chemical agents started 7 days after tumor injection. Chemical agents were injected at a regular interval of 2 days and PD-L1 antibody at a regular interval of 5 days (shown in FIG. 3b). Tumors were measured on every alternate day, and tumor volumes were calculated using the formula for typical ellipsoid, π×(length×breadth×height/6).
(§2) The following chemical reagents were used at the indicated concentrations for combination therapy. AMPK activator: A769662, 6 mg/kg (Abcam); mTOR activator: MHY1485, 3 μg/kg (Sigma-Aldrich); uncoupler: carbonylcyanide-p-trifluoromethoxyphenylhydrazone (FCCP), 1.2 mg/kg (Abcam); uncoupler: 2,4-Dinitrophenol (DNP), 1.7 mg/kg (Aldrich); SIRT1 activator: resveratrol, 0.5 mg/kg (Abcam); ROS scavenger: Mn (III) tetrakis (4-benzoic acid) porphyrin (MnTBAP), 1.25 mg/kg (Calbiochem); ROS generator: tert-butyl hydroperoxide solution (Luperox TBH70X), 200 μL/kg (Sigma-Aldrich); ATP synthase inhibitor: oligomycin, 250 μg/kg (Sigma-Aldrich); paraquat 2 mg/kg (Nakalai Tesque); oltipraz 1.9 mg/kg (Sigma); bezafibrate 1 mg/kg (ChemCruz).
MethA cells (5×10^5) were inoculated into BALB/c mice. After 7 days, anti-PD-L1 antibody (1-111A, 80 μg) and Foxo1 inhibitor (5-amino-7-(cyclohexylamino)-1-ethyl-6-fluoro-4-oxo-1,4-dihydroquinoline-3-carboxylic acid, Calbiochem) (2 mg/kg) were administered intraperitoneally.
Fibrosarcoma MethA (Cell Resource Center for Biomedical Research) cells (5×10^5) were inoculated into BALB/c mice. After 7 days, anti-PD-L1 antibody (1-111A, 60 μg) and Aminoleban (Otsuka Pharmaceutical, 400 μl/mouse) were administered.

MC38 = experiment: Mouse therapy model, MC38-bearing mice (tumor volume, survival); type: in vivo; conditions: MC38-bearing mice; for enhancement of antitumor effect of PD-L1 antibody (tumor volume) / survival rate: reagent combined with PD-L1 antibody vs PD-L1 antibody alone; for animal survival, triple combination of mTOR activator, AMPK activator and PD-L1 antibody / antitumor effect of triple combination of mTOR activator, AMPK activator and PD-L1 antibody: both activators with PD-L1 antibody; for antitumor effect when administered alone: reagent alone, no PD-L1 antibody, tumor volume
Description: as §1, §2
All reagents were freshly prepared just before use. Each reagent was dissolved in the solvent indicated in the instructions. Note that the AMPK activator, mTOR activator, uncouplers and SIRT1 activator were prepared from fresh unused vials in each series of experiments. Dissolved reagents were diluted in PBS, and a 200 l aliquot was injected per mouse.
Murine colon adenocarcinoma MC38 cells (5×10^5) were inoculated into C57BL/6 mice. After 7 days, anti-PD-L1 antibody (1-111A, 150 μg) and AMPK inhibitor (Compound C: 200 μg in BBS, 200 μL) were administered intraperitoneally. Anti-PD-L1 antibody was administered 3 times at a regular interval of 6 days; Compound C (C.C) was administered 7 times at a regular interval 2 days.
MC38 cells (5×10^5) were inoculated into C57BL/6 mice. After 7 days, anti-PD-L1 antibody (1-111A, 150 μg) and PGC-1α/transcription factor complex activator (2-(4-{2-[(4-chlorobenzoyl)amino]ethyl}phenoxy)-2-methylpropanoic acid (bezafibrate): 10 ug in PBS, 200 ul) were administered intraperitoneally. Anti-PD-L1 antibody was administered 3 times at a regular interval of 6 days; bezafibrate was administered 7 times at a regular interval 2 days.

PGC-1α = PGC-1α expression (Western blotting, real-time RT-PCR); type: in vivo, mouse; conditions: combination therapy together with PD-L1 antibody
Description: RNA was isolated from CD8^+ T cells or tumor cells with the RNeasy Mini Kit (Qiagen), followed by cDNA synthesis by reverse transcription. Real-time PCR for PGC-1α was performed using the following primers: Forward […] (SEQ ID NO: 1) and Reverse […] (SEQ ID NO: 2). To analyze the expression levels of genes associated with apoptosis and mitochondrial energy metabolism, RT2 Profiler PCR Array Gene Expression Kit PAMM-012Z or PAMM-008Z (Qiagen) was used. The list of genes included in this assay can be found in www.sabiosciences.com/Apoptosis.php.
CD8^+ T cells were isolated using mouse CD8 Microbeads (Miltenyi Biotec). After washing with PBS twice, 2×10^6 cells were solubilized in a lysis buffer containing 30 mM Tris-HCl (pH.7.4), 150 mM NaCl, 10% glycerol, 0.1% SDS, 1% Triton-X-100, 0.05% Na-Doc, 5 mM EDTA (pH.8.0), protease inhibitor mixture (Roche Molecular Biochemicals) and phosphatase inhibitors (Nacalai Tesque). After measurement of protein concentrations by DC protein assay (Bio-Rad), 4 μg of proteins was mounted on 4 to 20% gradient Mini-PROTEAN TGX Gels (Bio-Rad) and electroblotted onto nitrocellulose membranes, which were then incubated in a blocking buffer of TBS containing 1% BSA. Primary antibody incubations were carried out overnight at 4° C. in blocking buffer. After washing, secondary antibody incubations were carried out at room temperature for 40 min in blocking buffer. Blots were developed with enhanced chemiluminescence (Amersham Pharmacia). Primary antibodies recognizing the following proteins were used: Phospho-mTOR (P-mTOR) (Cat #5536), Phospho-AMPKa (P-AMPK) (#2535), Phospho-p70 S6 Kinase (P-S6K) (#9205), 4E-BP1 (#9644), Phospho-Acetyl-CoA Carboxylase (P-ACC) (#3661) and SIRT1 (#9475). All the primary antibodies were obtained from Cell Signaling Technology. An antibody recognizing PGC-1α (SC-13067) was obtained from Santa Cruz.

IFN-γ = experiment: Intracellular IFN-γ staining of CD8+ T cells from digested tumor tissues; type: in vivo, mouse; conditions: CD8+ T cells in tumors; combined with PD-L1 antibody
Description: (§3) FIG. 15. […] Data represent the means±SEM of five mice. *p<0.05, **p<0.01, one-way ANOVA.
(§4) The following antibodies recognizing the indicated antigens were used: CD44 (1M7), CD45.2 (104), CD45.1 (A20), CD8 (53-6.7), CD62L (MEL-14), T-bet (4B/O) and IFN-7 (XMG1.2), MHC class I (AF6-88.5), CD155 (Tx56) and VISTA (MIH63) from BioLegend; p-AMPK (EPR5683) from Ancam; p-mTOR (MRRBY), Eomes (Danllmag) and PD-L1 (M1H5) from eBioscience. All flow cytometry experiments were performed on a FACS Canto II (BD Biosciences) and analyzed using FlowJo software (FLOWJO, LLC). For assessment of intracellular phosphoproteins, cells were permeabilized with 0.5% Triton-X and fixed with 1.5% PFA before staining. Determination of mitochondrial mass, membrane potential, mitochondrial superoxide and cellular ROS was performed using MitoTracker Green, Mito-Tracker Deep Red, MitoSOX Red, and CellROX Green reagents, respectively (all from Life Technologies). These dyes were added to cells to a final concentration of 0.125 μM, 0.125 μM, 5.0 μM and 0.625 μM, respectively, and incubated at 37° C. in a 5% CO2 humidified incubator for 30 min.

T-bet and Eomes = T-bet and Eomes expression by flow cytometry in DLN CD8+ T cells; type: in vivo, mouse; conditions: combined with PD-L1 antibody
Description: as §3, §4

tumor cells = experiment: Phenotypic and transcription profile analysis of tumor cells from mice treated with reagent alone; design: species or system mouse; conditions: tumor cells from mice treated with reagent alone in vivo
Source text: FIG. 12. […] After enzymatic digestion, tumor cells were sorted with a cell isolation kit capable of excluding non-tumor cells. The isolated tumor cells were further purified with Aria and used in the following experiments. b) Tumor cells were stained with antibodies targeting PD-L1, MHC class I, CD155 (ligand of TIGIT), and VISTA or with dyes for mitochondrial mass, membrane potential, and superoxide. c) Expression levels of genes associated with mitochondrial energy metabolism and apoptosis were examined using RT^2 profiler PCR Kit.
For analyzing draining lymph nodes, cells from axillary, brachial, and inguinal lymph nodes on the right side of tumor-inoculated mice were harvested and mixed. Averaged cell numbers per one lymph node were used as absolute cell numbers. For tumor analysis, tumor tissues were minced into 2- to 3-mm pieces with scissors and digested with collagenase type IV (Thermo Fisher Scientific) using a gentle MACS Dissociator (Miltenyi Biotec). The numbers of tumor cells per mg were used as absolute numbers. Tumor cells were isolated from digested tumor tissues using a Tumor Cell Isolation Kit, mouse (Miltenyi Biotec). This kit purifies tumor cells by excluding lymphocytes, red blood cells, fibroblasts, endothelial cells and tumor-associated stromal cells. The resultant tumor cell population was further isolated/purified with FACS Aria (BD Biosciences). […]

CCn1cc(C(=O)O)c(=O)c2c(N)c(F)c(NC3CCCCC3)cc21 [Foxo1 inhibitor, 5-amino-7-(cyclohexylamino)-1-ethyl-6-fluoro-4-oxo-1,4-dihydroquinoline-3-carboxylic acid]
enhancement of antitumor effect of PD-L1 antibody (tumor volume) (MethA): enhances the efficacy of anti-PD-L1 antibody therapy | enhancement of antitumor effect of PD-L1 antibody (tumor volume) (MethA; listed as AS1842856): Synergistic effect

C[n+]1ccc(-c2cc[n+](C)cc2)cc1.[Cl-].[Cl-] [paraquat, 1,1′-dimethyl-4,4′-bipyridinium dichloride]
enhancement of antitumor effect of PD-L1 antibody (tumor volume) (MethA): enhanced the antitumor effect of PD-L1 antibody | enhancement of antitumor effect of PD-L1 antibody (tumor volume) (MC38): enhanced the effect for PD-1 blockade

O=C(O)c1ccc(-c2c3nc(c(-c4ccc(C(=O)O)cc4)c4ccc([n-]4)c(-c4ccc(C(=O)O)cc4)c4nc(c(-c5ccc(C(=O)O)cc5)c5ccc2[n-]5)C=C4)C=C3)cc1.[Mn+3] [MnTBAP, Mn (III) tetrakis (4-benzoic acid) porphyrin]
effect of ROS scavenger on combination therapy using PD-L1 antibody and uncouplers (MC38; added to PD-L1 antibody + FCCP or DNP): inhibited

O=[N+]([O-])c1ccc(Nc2nc(N3CCOCC3)nc(N3CCOCC3)n2)cc1 [mTOR activator, 4,6-Di-4-morpholinyl-N-(4-nitrophenyl)-1,3,5-triazin-2-amine]
expression levels of PGC-1α protein and mRNA (PGC-1α): increased | animal survival, triple combination of mTOR activator, AMPK activator and PD-L1 antibody (MC38): improved animal survival | antitumor effect of triple combination of mTOR activator, AMPK activator and PD-L1 antibody (MC38): further enhanced the effect of PD-L1 antibody | enhancement of antitumor effect of PD-L1 antibody (tumor volume) (MC38): moderately augmented the efficacy of PD-1 blockade therapy in the early phase

CC(C)(Oc1ccc(CCNC(=O)c2ccc(Cl)cc2)cc1)C(=O)O [bezafibrate, 2-(4-{2-[(4-chlorobenzoyl)amino]ethyl}phenoxy)-2-methylpropanoic acid]
IFN-γ production (IFN-γ): increased; also recorded: up-regulated | enhancement of antitumor effect of PD-L1 antibody (tumor volume) (MC38): enhanced the tumor growth inhibitory effect of PD-L1 antibody; also recorded: synergize with PD-L1 antibody; also recorded: Synergistic effect | survival rate (MC38): improved the survival rate | enhancement of antitumor effect of PD-L1 antibody (tumor volume) (MC38; listed as PGC-1α/transcription factor complex activator): enhances the efficacy of anti-PD-L1 antibody therapy | Eomes expression (T-bet and Eomes): reduced Eomes | T-bet expression (T-bet and Eomes): increased T-bet; also recorded: activated T-bet; also recorded: up-regulated

N#Cc1c(O)c2c(-c3ccc(-c4ccccc4O)cc3)csc2[nH]c1=O [AMPK activator, 6,7-dihydro-4-hydroxy-3-(2′-hydroxy[1,1′-biphenyl]-4-yl)-6-oxo-thieno[2,3-b]pyridine-5-carbonitrile]
expression levels of PGC-1α protein and mRNA (PGC-1α): increased | animal survival, triple combination of mTOR activator, AMPK activator and PD-L1 antibody (MC38): improved animal survival | antitumor effect of triple combination of mTOR activator, AMPK activator and PD-L1 antibody (MC38): further enhanced the effect of PD-L1 antibody | enhancement of antitumor effect of PD-L1 antibody (tumor volume) (MC38): moderately augmented the efficacy of PD-1 blockade therapy in the early phase

CC(C)(C)OO [Luperox, tert-butyl hydroperoxide]
antitumor activity of triple combination of PD-L1 antibody, DNP and Luperox (MC38; DNP and Luperox both with PD-L1 antibody): stronger antitumor activity; also recorded: Antitumor effect is enhanced | antitumor effect when administered alone (MC38): no antitumor activity was observed | enhancement of antitumor effect of PD-L1 antibody (tumor volume) (MC38): remarkably enhanced the antitumor effect; also recorded: Synergistic effect | survival rate (MC38): improved the survival rate | changes in immune-regulatory surface markers and transcriptional profiles of tumor cells (tumor cells): no significant changes; also recorded: little effect on tumor cells in vivo

Oc1ccc(/C=C/c2cc(O)cc(O)c2)cc1 [Resveratrol, trans-3,5,4′-trihydroxystilbene]
antitumor effect when administered alone (MC38): no tumor growth inhibitory effect was observed | enhancement of antitumor effect of PD-L1 antibody (tumor volume) (MC38): remarkably reduced tumor sizes; also recorded: remarkable tumor inhibitory effect | survival rate (MC38): improved the survival rate
